# Values of other authors, collected in patent US20080292726A1, “[…] COMPOSITIONS AND METHODS OF THEIR USE” (priority 2007, published 2008).
# Tested on: mouse model of uveitis
# Conditions: systemically administered, subcutaneously injected into the neck
structure (smiles),measurement,value
O=[N+]([O-])[O-].O=[N+]([O-])[O-].O=[N+]([O-])[O-].[Ga+3] [gallium nitrate],efficacy in a mouse model of uveitis,effective
